This is an account of results in paper PMC10747822 (Pharmaceutics, 2023).

Read-outs that look alike come from different tables or passages of the source. Where a SMILES comes first, the peptide text is derived from it. [ ]: non-standard residue; d: D form. The star is where a group is joined. NH(4-amidinobenzyl) = N=C(N)c1ccc(CN*)cc1

Data set [1] is described as follows: Stability in human whole blood. It counts as in vitro ADME. The following applies: human whole blood (K-EDTA), over at least 2 h; 1000 ng/mL, room temperature; UPLC-MS/MS. As for the experimental part: To investigate peptide stability, minimally diluted plasma or blood samples were generated through the addition of 10 µL of a spiking solution (50,000 ng/mL) to 490 µL of the pertinent biological matrix, resulting in a sample concentration of 1000 ng/mL. Samples (withdrawal of duplicates of 20 µL) were measured immediately after preparation and again after 1 and 2 h. Stability was evaluated via the comparison of peak area ratios of analyte and IS.
Because an isotopically labeled analog of Ac-[D-Leu]LLLRVK-amba was used as IS, potential variations in (negligible) matrix effects can be efficiently balanced by the IS due to its identical physicochemical characteristics. As a consequence, whole blood from other species is appropriate for calibration and QC preparation. Therefore, whole blood from human donors was used for these purposes, which also helps to reduce animal sacrifice.

The conditions of data set [2]: mice; cited from earlier work. As for the experimental part: The pharmacokinetics of Ac-[D-Leu]LLLRVK-amba was already determined after intravenous bolus injection. With a half-life of only 9 min, this route of administration only produced a short period of potentially effective concentrations. […] Therefore, we aimed at flattening the pharmacokinetic profile with alternate routes of administr ...

A short description of data set [3]: Blood pharmacokinetics in mice after intravenous and intraperitoneal injection. It counts as in vivo, C57Bl/6 female mice. The following applies: for half-life: C57Bl/6, mouse, whole blood sampled at 20, 40, 60, 120 min, non-compartmental. As for the experimental part:
Animal studies were approved by the regulatory authorities (Regierungspräsidium Karlsruhe of the state of Baden-Württemberg/Germany, 35-9185.81/G-145/21) and fully complied with European and national regulations for the care and use of laboratory animals (2010/63/EU). Eight- to ten-week-old C57Bl/6 female mice (Janvier) were used for the study.
The animals were administered 4 mg/kg Ac-[D-Leu]LLLRVK-amba in 0.100 mL 0.9% sodium chloride (NaCl) solution per mouse. Four animals received the peptide as intraperitoneal injection, and three animals as intravenous bolus injection into the tail vein. Blood samples were taken 20, 40, 60, and 120 min after administration by collecting a drop of blood from puncture of the facial vein into EDTA tubes (KABE Labortechnik, Nümbrecht, Germany). Whole-blood samples were immediately snap-frozen in liquid nitrogen and stored at −80 °C until analysis.
Blood samples for calibration and QC purposes were generated through the addition of 25 µL of the pertinent spike solution to 20 µL of blank blood and the subsequent addition of 25 µL of IS solution. Calibration samples were produced at 10, 30, 100, 300, 1000, 3000, and 10,000 ng/mL, and QC samples were produced at concentrations of 10, 30, 3750, and 7500 ng/mL. For study sample processing, 20 µL of each sample was added to 25 µL of IS solution, and 25 µL of ACN/H2O 1/1 + 0.1% FA was added for volume compensation to ensure that sample preparation matches that of study blood samples. For stability reasons, each sample was immediately depleted from proteins by adding 150 µL ACN including 0.1% FA. Samples were processed individually and kept frozen until processing. Subsequently, samples were centrifuged at 13,200× g for 5 min. From the extracts, 10 µL was transferred to 400 µL of ACN/H2O 1/19 + 0.1% FA in wells of a 96-well collection plate (Waters, Milford, MA, USA).
Calibration curves were determined with 1/x^2 weighted linear regression using peak area ratios of the analyte to IS. This calculation was performed using the software TargetLynx V4.2 (Waters, Milford, MA, USA). Blood pharmacokinetics were determined with the software Kinetica (v 5.0; Thermo Fisher Scientific, Waltham, MA, USA). Pharmacokinetic analyses were performed using standard non-compartmental methods. The elimination rate (λ) was calculated by linear regression of ln-transformed concentrations from the terminal concentration decline, and the half-life was calculated as ln 2 divided by λ. Standard calculations were performed using Microsoft Office Excel 2010 (Mountain View, CA, USA).

Take `CC(=O)N[C@H](CC(C)C)C(=O)N[C@@H](CC(C)C)C(=O)N[C@@H](CC(C)C)C(=O)N[C@@H](CC(C)C)C(=O)N[C@@H](CCCNC(=N)N)C(=O)N[C@H](C(=O)N[C@@H](CCCCN)C(=O)NCc1ccc(C(=N)N)cc1)C(C)C` [Ac-[D-Leu]LLLRVK-amba] (Ac-[dL]LLLRVK-{NH(4-amidinobenzyl)}): the “degradation in human whole blood” value in data set [1] was “no detectable degradation”. The “half-life after intravenous bolus injection (previous study)” value in data set [2] is given as 9 min. Besides, the level at 2 h in data set [3] (female, C57Bl/6, ip, mouse #1, 2 h after intraperitoneal administration of 4 mg/kg, whole blood, UPLC-MS/MS, single sample, read-out: calculated blood concentration) was 15.8 ng/mL. For the same compound, the half-life in data set [3] (female, ip, mice, 4 mg/kg intraperitoneal, n = 4, UPLC-MS/MS, read-out: half-life after intraperitoneal administration) came out at 15.9 ± 1 min; in data set [3] (female, mice, 4 mg/kg intravenous bolus into tail vein, n = 3, UPLC-MS/MS, read-out: half-life after intravenous injection), 21 ± 1.6 min. Further, in data set [3] (mice, 4 mg/kg intraperitoneal vs intravenous, judged by partial profiles, bioavailability not calculable), the intraperitoneal absorption result is “very efficient”.
